Data from PMC5541792, “Simultaneous Determination of 11 Compounds in Gualou Guizhi Granule and Pharmacokinetics Study by UPLC-MS/MS” (Journal of Analytical Methods in Chemistry, 2017).

Key:
[1] = Stability of analytes in rat plasma samples (method validation); type: in vitro ADME; details: n = 6; for Autosampler stability (24 h) Mean: 4°C for 24 h; for Stability (24 h at room temperature) Mean: 25°C for 24 h; for Freeze-thaw stability (3 cycles) Mean: three freeze-thaw cycles at −80°C
Procedure: Stability of the analytes from plasma samples was performed by determining three different concentrations (low, middle, and high samples) in six replicates under different conditions. It included short-term stability which was assessed by keeping samples at room temperature (25°C) for 24 h, stability which was measured using samples stored at 4°C for 24 h, and freeze-thaw stability that was determined after three freeze-thaw cycles at −80°C.

[2] = Pharmacokinetic study in rats after oral administration of GLGZG (UPLC-MS/MS of plasma); type: in vivo, rat; details: for Plasma concentration-time behaviour (in words): rat plasma after oral GLGZG; for AUC(0–∞) / Tmax / MRT inf / half-life / Vd/F: rat plasma, male SD rats, oral GLGZG 3.6 g·(kg·day)^−1, n = 6; for MRT inf: read-out: MRT(0–∞) (converted); for half-life: read-out: T 1/2z; for Vd/F: read-out: Vz/F
Procedure: Chromatographic separation was performed on an Waters CORTECS C18 (2.1 × 100 mm, 1.6 μm) with the column temperature at 45°C. The mobile phase was composed of 0.1% formic acid in water (A) and acetonitrile (B) with a gradient program (0–0.5 min from 8% to 10% B; 0.5–2.5 min from 10% to 15% B; 2.5–4.0 min from 15% to 60% B; 4.0–5.0 min from 60% to 95% B; 5.0–6.5 min 95% B). The flow rate was 0.25 mL/min and the injection volume was 1 μL.
Mass spectrometry was operated using a Waters (Milford, MA) Xevo TQMS with an electrospray ion source (ESI) in the negative ion multiple reaction monitoring (MRM) mode. The other detailed MS parameters were as follows: drying gas: N2 (purity of 99.9%), 15 L/min, nebulizing gas: 50 L/min, capillary voltage: 2.5 kv.
Plasma samples (100 μL of plasma) and IS working solutions (10 μL of swertiamarin, kaempferol-3-O-rutinoside, and ginsenoside Rb1) were combined and briefly vortex-mixed for 3 min followed by the addition of 4-fold acetonitrile. Then the mixture was centrifuged at 12000 rpm for 10 min. The supernatant was transferred to a clean tube and concentrated up to dryness; the residue was dissolved in 100 μL 50% methanol. Finally, 1 μL aliquot was injected into UPLC-MS/MS system for analysis.
Six male SD rats, weighing 250 ± 20 g, were provided by Experimental Animal Research Center of Fujian TCM University (Fuzhou, China). And they were housed at controlled environmental conditions (temperature: 23 ± 2°C, relative humidity: 55 ± 10%) with free access to standard laboratory food and water. The rats were fasted for 12 h but with access to water before being given GLGZG (3.6 g·(kg·day)^−1). Blood samples of 0.3 mL were collected in heparin containing tubes from epicanthic veins of rats by capillary tube before dose (0 h) and at 5 min, 10 min, 20 min, 0.5 h, 1 h, 1.5 h, 2 h, 3 h, 6 h, 9 h, and 12 h. Then they were centrifuged at 12000 rpm for 10 min. The supernatant liquor was collected and frozen at −20°C until use.
The validated UPLC-MS/MS method was successfully applied to the PK studies of eleven analytes following oral administration of GLGZG to individual male rats (n = 6). The main pharmacokinetic parameters were summarized in Table 8 and the mean plasma concentration-time profiles of the eleven analytes were illustrated in Figure 3.

[3] = middle QC nominal concentration

| Structure (SMILES) | Autosampler stability (24 h) Mean ([1]; low QC nominal concentration) [%] | Autosampler stability (24 h) Mean [1, 3] [%] | Stability (24 h at room temperature) Mean ([1]; high QC nominal concentration) [%] | Stability (24 h at room temperature) Mean ([1]; low QC nominal concentration) [%] | Stability (24 h at room temperature) Mean [1, 3] [%] | Freeze-thaw stability (3 cycles) Mean ([1]; high QC nominal concentration) [%] | Freeze-thaw stability (3 cycles) Mean ([1]; low QC nominal concentration) [%] | Freeze-thaw stability (3 cycles) Mean [1, 3] [%] | AUC(0–∞) [2] [mg·L/min] | Tmax [2] [h] | MRT inf [2] [h] | half-life [2] [h] | Vd/F [2] [L/kg] | Autosampler stability (24 h) Mean ([1]; high QC nominal concentration) [%] | Plasma concentration-time behaviour (in words) [2] |
| --- | --- | --- | --- | --- | --- | --- | --- | --- | --- | --- | --- | --- | --- | --- | --- |
| O=C(/C=C/c1ccc(O)cc1)c1ccc(O)cc1O [Isoliquiritigenin, isoliquiritigenin] | 106.19 | 91.71 | – | 99.77 | 93.66 | 109.21 | 99.28 | 107.70 | 8.52 ± 0.98 | 0.5 | 4.76 | 3.4 ± 0.675 | 700 ± 187 | 108.30 | low in the blood |
| CC12CC(O)C3CC1(OC1OC(CO)C(O)C(O)C1O)C3(COC(=O)c1ccccc1)C(=O)O2 (stereo not drawn) [Albiflorin, albiflorin] | 97.93 | 111.49 | 108.45 | 94.78 | 93.66 | 98.89 | 99.77 | 108.14 | 1263.37 ± 306.91 | 1 | 3.59 | 2.13 ± 0.596 | 2.67 ± 0.87 | 107.72 | – |
| O=C(/C=C/c1ccc(O[C@@H]2O[C@H](CO)[C@@H](O)[C@H](O)[C@H]2O)cc1)c1ccc(O)cc1O [Isoliquiritin, isoliquiritin] | – | 97.14 | – | – | 99.28 | 108.88 | 98.98 | 94.03 | 27.17 ± 2.69 | 0.472 | 5.66 | 4.6 ± 0.866 | 297 ± 70 | 95.62 | – |
| CC1(C)[C@@H](O)CC[C@]2(C)[C@H]3C(=O)C=C4[C@@H]5C[C@@](C)(C(=O)O)CC[C@]5(C)CC[C@@]4(C)[C@]3(C)CC[C@@H]12 [Glycyrrhetinic acid, glycyrrhetinic acid] | – | – | – | – | – | – | – | – | 2041.10 ± 706.58 | 10 | 11.8 | 2.2 ± 0.472 | – | – | – |

The next lines start with results.

| Autosampler stability (24 h) Mean ([1]; low QC nominal concentration) [%] | Autosampler stability (24 h) Mean [1, 3] [%] | Stability (24 h at room temperature) Mean ([1]; high QC nominal concentration) [%] | Stability (24 h at room temperature) Mean ([1]; low QC nominal concentration) [%] | Stability (24 h at room temperature) Mean [1, 3] [%] | Freeze-thaw stability (3 cycles) Mean ([1]; high QC nominal concentration) [%] | Freeze-thaw stability (3 cycles) Mean ([1]; low QC nominal concentration) [%] | Freeze-thaw stability (3 cycles) Mean [1, 3] [%] | AUC(0–∞) [2] [mg·L/min] | Tmax [2] [h] | MRT inf [2] [h] | half-life [2] [h] | Vd/F [2] [L/kg] | Autosampler stability (24 h) Mean ([1]; high QC nominal concentration) [%] | Structure (SMILES) | Plasma concentration-time behaviour (in words) [2] |
| --- | --- | --- | --- | --- | --- | --- | --- | --- | --- | --- | --- | --- | --- | --- | --- |
| 97.71 | 92.82 | 94.94 | 96.05 | 92.18 | 98.20 | 98.31 | 108.78 | 1262.61 ± 158.73 | 0.9 | 4.4 | 2.86 ± 0.561 | 3.92 ± 1.44 | – | CC1(C)[C@@H](O[C@H]2O[C@H](C(=O)O)[C@@H](O)[C@H](O)[C@H]2O[C@@H]2O[C@H](C(=O)O)[C@@H](O)[C@H](O)[C@H]2O)CC[C@]2(C)[C@H]3C(=O)C=C4[C@@H]5C[C@@](C)(C(=O)O)CC[C@]5(C)CC[C@@]4(C)[C@]3(C)CC[C@@H]12 [Glycyrrhizic acid, glycyrrhizic acid] | double-peak phenomenon |
| 98.45 | 93.53 | 97.03 | – | – | – | – | – | 20.38 ± 4.30 | 0.445 | 4.92 | 3.87 ± 0.477 | 341 ± 73.6 | 97.16 | O=C1C[C@@H](c2ccc(O)cc2)Oc2cc(O)ccc21 [Liquiritigenin, liquiritigenin] | – |
| – | 92.30 | 106.73 | 95.70 | – | 97.91 | 101.75 | 109.75 | 54.87 ± 14.40 | – | 5.93 | 5.16 ± 1.11 | 167 ± 35.9 | 90.84 | O=C1C[C@@H](c2ccc(O[C@@H]3O[C@H](CO)[C@@H](O)[C@H](O)[C@H]3O)cc2)Oc2cc(O)ccc21 [Liquiritin, liquiritin] | – |
| 103.46 | 98.29 | 109.75 | 105.66 | 91.25 | – | 97.71 | 92.82 | 904.73 ± 317.76 | 1.33 | 3.93 | 2.38 ± 0.502 | 6.31 ± 1.63 | 113.81 | C[C@@]12C[C@@]3(O)O[C@@H](O1)[C@]1(COC(=O)c4ccccc4)[C@H]3C[C@@]12O[C@@H]1O[C@H](CO)[C@@H](O)[C@H](O)[C@H]1O [Paeoniflorin, paeoniflorin] | – |
